Source: PubChem BioAssay (NCI)
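Step 1: Grow cells in 96-well plates. Step 2: Expose to compound for 48 hours at 5 concentrations. Step 3: Interpolate endpoints linearly; if unreached, use highest concentration. At the GI50, growth is halved. TGI marks complete inhibition of growth.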

Tests used:
Experiment in all cases: growth of human tumour cells (NCI), 48 h
[1] = system: K-562 leukemia
[2] = system: HOP-92 NSCLC
[3] = system: HT29 colon
[4] = system: NCI-H522 lung
[5] = system: SNB-75 CNS
[6] = system: 786-0 renal
[7] = system: A498 renal
[8] = system: NCI-H226 lung
[9] = system: RPMI-8226 leukemia
[10] = system: DU-145 prostate

Compound	TGI [1] [µM]	TGI [2] [µM]	TGI [3] [µM]	TGI [4] [µM]	TGI [5] [µM]	TGI [6] [µM]	TGI [7] [µM]	TGI [8] [µM]	TGI [9] [µM]	TGI [10] [µM]	GI50 [1] [µM]	GI50 [2] [µM]	GI50 [9] [µM]	GI50 [10] [µM]	GI50 [3] [µM]	GI50 [4] [µM]	GI50 [5] [µM]	GI50 [6] [µM]	GI50 [7] [µM]
CC1=C2C(=CC(C)(C)C2O)C(=O)C(C)(O)C12CC2 (stereo unspecified)	0.154	0.0526	0.0311	0.017	0.0377	0.0388	0.0822	0.152	–	–	–	–	–	–	–	–	–	–	–
O=CN/C=C/c1ccc(O)c(O)c1	> 100	> 100	> 100	> 100	> 100	> 100	> 100	> 100	> 100	–	–	–	–	–	–	–	–	–	–
CCOC(=O)NC(=O)c1cn(CCCCCCOC(=O)NCCCCCCNC(=O)OCCCCCCn2cc(C(=O)NC(=O)OCC)c(=O)[nH]c2=O)c(=O)[nH]c1=O	> 100	–	> 100	> 100	> 100	> 100	> 100	> 100	> 100	–	–	–	–	–	–	–	–	–	–
N#CC(c1nc2ccccc2nc1Cl)S(=O)(=O)c1ccccc1 (stereo unspecified)	> 100	70.1	–	> 100	> 100	> 100	> 100	> 100	> 100	–	–	–	–	–	–	–	–	–	–
C=C(CO[Si](C)(C)C(C)(C)C)C(C)=O	> 52.4	–	40.7	17.3	62.3	34.3	> 100	> 100	> 77.8	> 100	–	–	–	–	–	–	–	–	–
C/C=C(/COC(C)=O)C(=O)OC1C=C(C=O)C(C)(C)C=C1C (stereo unspecified)	> 100	> 100	> 100	> 100	> 100	> 100	> 100	> 100	–	> 100	–	–	–	–	–	–	–	–	–
Cc1ccc(N2C(=O)C3C=CC(n4[nH]c(=O)n(Cc5ccccc5)c4=O)CC3C2=O)cc1 (stereo unspecified)	> 100	> 100	> 100	> 100	> 100	> 100	> 100	> 100	> 100	–	–	–	–	–	–	–	–	–	–
COC(=O)c1cc(Cl)ccc1NC(=O)c1ccc([N+](=O)[O-])cc1	> 100	–	35.1	–	20.7	38.2	34.5	42.5	69.4	–	–	–	–	–	–	–	–	–	–
COC(=O)CCC(NC(=S)N/N=C/c1ccco1)C(=O)OC (stereo unspecified)	> 100	–	> 100	> 100	> 100	> 100	> 100	> 100	–	–	–	–	–	–	–	–	–	–	–
CCN(CC)Cc1ccc(Nc2nccc(-c3cnn4ncccc34)n2)cc1	> 25	0.0977	0.0984	0.116	0.0529	> 12.9	0.0452	–	1.76	> 8.56	0.0682	0.00833	0.0749	0.012	0.0121	0.049	0.0114	0.0133	0.0144
NC(=O)c1c(NC(=O)c2ccc3c(c2)OCO3)sc2c1CCC(=O)C2	> 100	5.91	–	2.29	6.5	> 100	–	–	1.6	> 100	0.356	1.65	0.339	4.5	–	0.355	2.13	2.19	–
